These results are taken from the NIST ThermoML archive (doi:10.1021/je700036v).

± gives the expanded uncertainty stated by the source.

A short description of this series: refractive index (Na D-line) (dimensionless). The conditions noted are these: 293.1 K; 101.33 kPa; Liquid; Standard Abbe refractometry.
For `Cc1ccccc1` [toluene], the refractive index is listed as 1.4873 ± 0.0007. As for `O=CN1CCOCC1` [N-formylmorpholine], the figure is 1.484 ± 0.0007; as for `CC1CCCCC1` [methylcyclohexane], 1.423 ± 0.0007.

By refractive index is commonly meant a measure of how strongly the sample bends light.
